Data on 21 molecules can be found in ChEMBL document CHEMBL1130298, “Class III antiarrhythmic activity in vivo by selective blockade of the slowly activating cardiac delayed rectifier potassium current IKs by (R)-2-(2,4-trifluoromethyl)-N-[2-oxo-5-phenyl-1-(2,2,2-trifluoroethyl)- 2, 3-dihydro-1H-benzo[e][1,4]diazepin-3-yl]acetamide” (J Med Chem, 1997).

Molecules are shown by their SMILES. pIC50: −log10 of the molar value. Some results are limits rather than exact numbers.

Data set [1] addresses Voltage-gated inwardly rectifying potassium channel KCNH2 (Homo sapiens, UniProt Q12809). The data set can be described thus: Inhibition of Ikr current in isolated guinea pig myocytes during a 0.5 s voltage clamp step from -50 to -10 mV. The data set is classed as functional, cell-based, Cavia porcellus. The following applies: target entry is the homologue from another species.

Data set [2] in a line: Inhibition of Iks current in isolated guinea pig myocytes during a 1s voltage clamp step from -50 to +50 mV. Particulars: Cavia porcellus. The data set is classed as functional, cell-based.
Data set [3] deals with T1, IKr current (KCNH2 potassium channel) (Homo sapiens, UniProt Q12809). Nature of the data set: Inhibition of Ikr current in isolated guinea pig myocytes during a 0.5 s voltage clamp step from -50 to -10 mV at 1000 nM. The data set is classed as functional, cell-based, Cavia porcellus. Particulars: target entry is the homologue from another species.
T1 sequence (Q12809 whole entry): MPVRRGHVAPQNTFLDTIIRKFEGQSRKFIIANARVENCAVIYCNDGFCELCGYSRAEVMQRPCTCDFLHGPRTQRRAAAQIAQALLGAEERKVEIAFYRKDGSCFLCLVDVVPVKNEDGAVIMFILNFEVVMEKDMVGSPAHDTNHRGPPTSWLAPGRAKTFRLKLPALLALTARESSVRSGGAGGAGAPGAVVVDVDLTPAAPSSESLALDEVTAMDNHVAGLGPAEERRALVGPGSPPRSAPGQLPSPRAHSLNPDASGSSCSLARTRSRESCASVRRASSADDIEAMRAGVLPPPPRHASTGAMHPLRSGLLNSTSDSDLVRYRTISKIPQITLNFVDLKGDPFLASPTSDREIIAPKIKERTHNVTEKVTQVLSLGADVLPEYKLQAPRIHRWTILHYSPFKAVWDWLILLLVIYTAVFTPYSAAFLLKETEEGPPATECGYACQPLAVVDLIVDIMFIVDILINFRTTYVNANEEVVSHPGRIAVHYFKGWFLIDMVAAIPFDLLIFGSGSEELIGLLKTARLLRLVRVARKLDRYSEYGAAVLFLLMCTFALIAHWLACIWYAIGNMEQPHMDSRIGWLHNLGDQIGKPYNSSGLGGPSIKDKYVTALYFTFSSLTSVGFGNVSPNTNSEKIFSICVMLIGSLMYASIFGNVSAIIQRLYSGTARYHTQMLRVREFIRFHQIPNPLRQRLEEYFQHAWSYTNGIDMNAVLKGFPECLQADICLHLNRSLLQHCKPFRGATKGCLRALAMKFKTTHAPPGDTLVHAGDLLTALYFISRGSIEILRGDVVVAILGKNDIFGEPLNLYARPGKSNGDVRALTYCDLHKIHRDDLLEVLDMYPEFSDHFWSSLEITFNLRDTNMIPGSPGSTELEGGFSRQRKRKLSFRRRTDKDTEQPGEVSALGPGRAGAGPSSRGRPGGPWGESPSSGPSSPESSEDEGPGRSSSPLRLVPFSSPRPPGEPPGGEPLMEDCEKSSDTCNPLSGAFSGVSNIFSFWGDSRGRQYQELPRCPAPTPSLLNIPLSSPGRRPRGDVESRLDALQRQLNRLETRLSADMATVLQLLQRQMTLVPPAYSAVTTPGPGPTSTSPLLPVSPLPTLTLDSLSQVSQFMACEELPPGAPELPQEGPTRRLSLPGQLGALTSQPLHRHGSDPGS
For data set [4], the target named is T1, IKr current (KCNH2 potassium channel). Nature of the data set: Inhibition of Ikr current in isolated guinea pig myocytes during a 0.5 s voltage clamp step from -50 to -10 mV at 100 nM. The data set is classed as functional, cell-based, Cavia porcellus. The following applies: target entry is the homologue from another species.

Chain of Voltage-gated inwardly rectifying potassium channel KCNH2 (Q12809 whole entry): as above

For `O=C(Cc1cc(Cl)cc(Cl)c1)N[C@@H]1N=C(c2ccccc2)c2ccccc2N(CC(F)(F)F)C1=O`, the negative logarithm of the IC50 (pIC50) is 5.40 in data set [1] and 7.52 in data set [2].
`CN1C(=O)[C@H](NC(=O)CCc2ccc(Cl)cc2Cl)N=C(c2ccccc2)c2ccccc21` showed an inhibition at 1 µM in data set [3] of 31%.
With `O=C(N[C@@H]1N=C(c2ccccc2)c2ccccc2N(CC(F)(F)F)C1=O)c1cc(Cl)cc(Cl)c1`, the pIC50 in data set [2] is 7.96. In data set [4], this molecule displayed an inhibition at 0.1 µM of 25%.
Turning to `CN1C(=O)[C@H](NC(=O)CCC2CCCCC2)N=C(c2ccccc2)c2ccccc21`, the negative-log IC50 (pIC50) in data set [1] was 6.00; in data set [2], 8.00.
`CC(C)N1C(=O)[C@H](NC(=O)c2cc(Cl)cc(Cl)c2)N=C(c2ccccc2)c2ccccc21` had a negative-log IC50 (pIC50) in data set [2] of 8.22.
`CN1C(=O)[C@H](NC(=O)C(N)Cc2ccccc2)N=C(c2ccccc2)c2ccccc21` (stereo partly drawn) had a pIC50 in data set [2] of 5.55.
The molecule `O=C(Cc1ccc(C(F)(F)F)cc1C(F)(F)F)N[C@@H]1N=C(c2ccccc2)c2ccccc2N(CC(F)(F)F)C1=O` [L-768673] gave a negative-log IC50 (pIC50) in data set [2] of 8.22. Compared with the last molecule, the pIC50 is 2.67 log units higher.
The molecule `CC(C)N1C(=O)[C@H](NC(=O)Cc2cc(Cl)cc(Cl)c2)N=C(c2ccccc2)c2ccccc21` gave a negative-log IC50 (pIC50) in data set [2] of 8.00. This pIC50 is 0.22 log units lower than that of the molecule before.
With `O=C(Cc1ccc(C(F)(F)F)cc1C(F)(F)F)N[C@H]1N=C(c2ccccc2)c2ccccc2N(CC(F)(F)F)C1=O`, in data set [3], the inhibition at 1 µM turned out to be 35%.
Molecule `CN1C(=O)[C@H](NC(=O)Cc2ccc(C(F)(F)F)cc2C(F)(F)F)N=C(c2ccccc2)c2ccccc21` showed a pIC50 in data set [2] of 6.85.
The same measure, in the same setting: then `Cc1cccc(NC(=O)N[C@@H]2N=C(c3ccccc3)c3ccccc3N(C)C2=O)c1` [L-365260], with 6.67.
Still for that read-out and setting: for `CN1C(=O)[C@H](NC(=O)/C=C/c2ccc(Cl)cc2Cl)N=C(c2ccccc2)c2ccccc21` the value was 8.22.
In data set [3], `CN1C(=O)[C@H](NC(=O)Cc2ccccc2)N=C(c2ccccc2)c2ccccc21` returned an inhibition at 1 µM of 31%. In data set [2], this molecule showed a negative-log IC50 (pIC50) of 6.52.
On the same counts, the results for `CN1C(=O)[C@H](NC(=O)c2cc(Cl)cc(Cl)c2)N=C(c2ccccc2)c2ccccc21` are 17% and 7.35.
Regarding `CC(C)N1C(=O)[C@H](NC(=O)CCC2CCCCC2)N=C(c2ccccc2)c2ccccc21`, the pIC50 in data set [2] is 7.70.
Molecule `CC(C)N1C(=O)[C@@H](NC(=O)c2cc(Cl)cc(Cl)c2)N=C(c2ccccc2)c2ccccc21` had an inhibition at 1 µM in data set [3] of 6%.
In data set [2], `CC(=O)Nc1ccc(CCC(=O)N[C@@H]2N=C(c3ccccc3)c3ccccc3N(C)C2=O)cc1` had a pIC50 of less than 5.00.
Turning to `CN1C(=O)[C@H](NC(=O)CCc2ccccc2)N=C(c2ccccc2)c2ccccc21`, testing at 1 µM in data set [3] gave an inhibition of 32%. In data set [2], this molecule had a negative logarithm of the IC50 (pIC50) of 6.70.
The molecule `CN1C(=O)[C@H](NC(=O)c2ccccc2)N=C(c2ccccc2)c2ccccc21` had an inhibition at 1 µM in data set [3] of 23%. This molecule had a negative logarithm of the IC50 (pIC50) in data set [2] of 6.22.
As for `O=C(Cc1ccc(Cl)cc1Cl)N[C@@H]1N=C(c2ccccc2)c2ccccc2N(CC(F)(F)F)C1=O`, in data set [2], the negative-log IC50 (pIC50) is 8.05.
The molecule `CN(C)CCN1C(=O)C(NC(=O)CCc2ccc(Cl)cc2Cl)N=C(c2ccccc2)c2ccccc21` (stereo not drawn) gave a pIC50 in data set [1] of 7.00.

What is called pIC50 is −log10 of the IC50, conventionally taken in molar units. The term inhibition denotes how much of the control response was suppressed. A higher inhibition goes with strong suppression.
